“Also recorded” adds a separate entry of the source.
Columns and labels:
Type in all cases: in vivo, Leghorn chickens
[1] = system: cockscomb; assay: Cockscomb hemangioma model: general (naked eye) observation of cockscomb after drug injection
Source text: Animals: 88 Leghorn chickens of clean grade and raised under uniform feeding conditions in the same batch, male, weighing 1000 1500 g, 10 12 weeks old, provided by the Animal Experimental Center of Qinglongshan Animal Breeding Farm in Jiangning, Nanjing. The cockscomb is required to be plump, smooth, ruddy, and no lesion. All animals are reared in the same laboratory according to the requirements of clean grade, and they can eat and drink freely. The experimental process complies with the People's Republic of China “Regulations on the Management of Laboratory Animals” and ethical requirements. Test drugs: each component of the drug composition is commercially available. Citric acid, paeoniflorin, and gallic acid are mixed at the ratio described in the following table to obtain com[…]-I, respectively. Then, each composition was dissolved in water for injection to obtain an injection with a concentration of 13.2 mg/mL. The positive control group used lauromacrogol parenteral solution (Specification: 10 mL: 100 mg, Shaanxi Tianyu Pharmaceutical Co., Ltd.) as a sclerosing agent, and was prepared into a 5 mg/ml injection with water for injection before use. The clean grade of male Leghorn chickens were selected and randomly divided into a blank control group, a positive control group and a pharmaceutical composition groups A-I, a total of 11 groups, each with 8 chickens. Four points were selected for the cockscomb of each cock as the drug injection point, and the cockscomb was observed, photographed, and sampled before the experiment and 3 days, 7 days, 14 days, and 28 days after the experiment. […] As the thickness of the cockscomb was 8 10 mm, only one side of the cockscomb is injected subcutaneously, and the non-injected side of the contralateral side was used as the self-control group. After the injection, the cocks were continued to raise under uniform conditions, eaten and drunk freely until the material was obtained. Before drug injection, the general condition of the cockscomb, including shape, color, thickness, surface condition, etc., were observed and recorded with photos. After the drug injection, the observation was performed every day, and included: the color change of the cockscomb, whether the epidermis has white spots, whether the edema occurs, whether tissue necrosis occurs on the surface, whether scab occurs, whether scar occurs, and whether the scab falls off, and the time distribution of fall off. The observation were recorded by taking photos at four time points, i.e., 3 days, 7 days, 14 days, and 28 days after the drug injection, and meanwhile, the experimental cock was anesthetized and the tissues at the injection site were taken and examined by light microscope.

[2] = system: cockscomb; assay: Cockscomb hemangioma model: HE staining, histopathological changes under light microscope
Source text: The clean grade of male Leghorn chickens were selected and randomly divided into a blank control group, a positive control group and a pharmaceutical composition groups A-I, a total of 11 groups, each with 8 chickens. Four points were selected for the cockscomb of each cock as the drug injection point, and the cockscomb was observed, photographed, and sampled before the experiment and 3 days, 7 days, 14 days, and 28 days after the experiment.
(§1) The experimental cocks were anesthetized through intramuscular injection of 0.1 mg/kg Sumianxin, fixed, and cleaned, and after being disinfected, each cockscomb was marked with gentian violet to form 4 circles with a diameter of 1 cm in turn on one side of the each cockscomb from front to back, and was injected at the center of each circle: the blank control group was injected with 0.5 mL of solvent (water for injection), the positive control group was injected with 0.5 mL of 5 mg/ml lauromacrogol injection, and the groups A-I were injected with 0.5 mL of the corresponding 13.2 mg/mL injection of compositions 1-9, respectively, and the standard is that the surface tissue of the cockscomb turns white and produces a skin hill. As the thickness of the cockscomb was 8˜10 mm, only one side of the cockscomb is injected subcutaneously, and the non-injected side of the contralateral side was used as the self-control group. After the injection, the cocks were continued to raise under uniform conditions, eaten and drunk freely until the material was obtained.
(§2) The tissues at the injection site were taken, fixed in 10% neutral formaldehyde fixative for 48 hours, embedded in paraffin, sectioned, stained with conventional HE, and examined by light microscope at 3 days, 7 days, 14 days, and 28 days after drug injection, respectively.

[3] = system: cockscomb capillaries; assay: Cockscomb hemangioma model: number of capillaries (HE staining and computer image analysis); conditions: x±s, high-power field
Method: as §1, §2
The processed tissue sections were sorted according to the number, and observed through an optical microscope. The changes in the number of blood vessels in each tissue section were observed under the adjusted high-power field of view (DABX400), and the changes in the number of apoptosis were observed by the TUNEL method. Five fields of view were randomly selected under the high-power field of view, and the image was analyzed using Tmage Proplus 6.0 software.
All data were processed with SPSS statistical software, and the data were expressed as x±s.

[4] = system: vascular endothelial cells; assay: Cockscomb hemangioma model: cell apoptosis detection (TUNEL method and computer image analysis); conditions: x±s, high-power field
Method: as §1
The TUNEL method is used for cell apoptosis detection including cell detection and tissue specimen detection. The principle is that deoxyuridine triphosphate is connected to the 3′-OH end of broken DNA in apoptotic cells by the catalysis of deoxyribonucleotide terminal transferase, and then is also bound to the luciferin antibody linked with horseradish peroxidase, and thus, the apoptotic cells can be accurately positioned through the bond of the luciferin antibody with the horseradish peroxidase substrate diaminobenzidine. […]

- Cockscomb edema after drug injection ([1]; 0 d): no
- Cockscomb appearance after drug injection ([1]; 0 d, 0.5 mL subcutaneous injection per point): normal
- Cockscomb appearance after drug injection ([1]; 3 d): normal
- Cockscomb edema after drug injection ([1]; 3 d): mild edema
- Cockscomb appearance after drug injection ([1]; 7 d): normal
- Cockscomb edema after drug injection ([1]; 7 d): the edema decreased
- Cockscomb appearance after drug injection ([1]; 14 d): normal
- Cockscomb appearance after drug injection ([1]; 28 d): normal
- Cockscomb edema after drug injection ([1]; 28 d): with no edema and with scar
- appearance of the cockscomb ([1]; throughout the experiment): remained normal
Substance: lauromacrogol [Positive control group]
- The color and scab at the cockscomb injection site after drug injection ([1]; 0 d): white skin hills
- The color and scab at the cockscomb injection site after drug injection ([1]; 3 d): dark red
- The color and scab at the cockscomb injection site after drug injection ([1]; 7 d): light yellow
- Cockscomb edema after drug injection ([1]; 14 d): the edema gradually decreased; also recorded: faintly edema
- The color and scab at the cockscomb injection site after drug injection ([1]; 14 d): the center part of the drug injection site had a black scab, the surrounding part was yellow
- The color and scab at the cockscomb injection site after drug injection ([1]; 28 d): the black scab at the injection site fell off, became light yellow
- The internal and external conditions of subcutaneous capillary lumens of cockscomb after drug injection ([2]; 3 d): inflammatory cells in the peripheral tissues were infiltrated, interstitial edema was obvious, and a small amount of collagen fibers proliferated
- The morphology and number of subcutaneous capillaries of cockscomb after drug injection ([2]; 3 d): subcutaneous capillaries were destroyed and fused
- The internal and external conditions of subcutaneous capillary lumens of cockscomb after drug injection ([2]; 7 d): collagen fibers were further proliferated, and inflammatory cells infiltrated and interstitial edema decreased
- The morphology and number of subcutaneous capillaries of cockscomb after drug injection ([2]; 7 d): capillaries were further decreased
- The internal and external conditions of subcutaneous capillary lumens of cockscomb after drug injection ([2]; 14 d): collagen fibers continued to proliferate
- The morphology and number of subcutaneous capillaries of cockscomb after drug injection ([2]; 14 d): the number of blood vessels continued to decrease
- The internal and external conditions of subcutaneous capillary lumens of cockscomb after drug injection ([2]; 28 d): filled with a large number of collagen fibers
- The morphology and number of subcutaneous capillaries of cockscomb after drug injection ([2]; 28 d): the capillaries were significantly reduced
- number of capillaries ([3]; 3 d): 47.05 ± 4.12
- number of capillaries ([3]; 7 d): 41.89 ± 4.25
- number of capillaries ([3]; 14 d): 36.59 ± 3.62
- number of capillaries ([3]; 28 d): 24.68 ± 4.33
- number of apoptotic cells ([4]; 3 d): 21.02 ± 3.56
- number of apoptotic cells ([4]; 7 d): 36.78 ± 3.87
- number of apoptotic cells ([4]; 14 d): 54.68 ± 3.65
- number of apoptotic cells ([4]; 28 d): 68.62 ± 3.27

— patent US20230065462A1, “Pharmaceutical composition and use thereof” (HENAN TAIFENG BIOLOGICAL TECHNOLOGY CO., LTD., priority 2020, published 2023)
